Activity calls are given as the source filed them. Unless noted, the rule behind the calls is not given here.
Key:
[1] = target: Broad substrate specificity ATP-binding cassette transporter ABCG2 (Homo sapiens, UniProt Q9UNQ0); assay: blockers of JC-1 export by ABCG2 – Ig-MXP3 cells, flow cytometry, dose response (AID 1690); type: functional
[2] = target: ATP-dependent translocase ABCB1 (Homo sapiens, UniProt P08183); assay: inhibition of P-gp mediated JC-1 efflux – Jurkat-DNR cells, flow cytometry, dose response (AID 1689); type: functional
Sequence of ATP-dependent translocase ABCB1 (P08183 whole entry): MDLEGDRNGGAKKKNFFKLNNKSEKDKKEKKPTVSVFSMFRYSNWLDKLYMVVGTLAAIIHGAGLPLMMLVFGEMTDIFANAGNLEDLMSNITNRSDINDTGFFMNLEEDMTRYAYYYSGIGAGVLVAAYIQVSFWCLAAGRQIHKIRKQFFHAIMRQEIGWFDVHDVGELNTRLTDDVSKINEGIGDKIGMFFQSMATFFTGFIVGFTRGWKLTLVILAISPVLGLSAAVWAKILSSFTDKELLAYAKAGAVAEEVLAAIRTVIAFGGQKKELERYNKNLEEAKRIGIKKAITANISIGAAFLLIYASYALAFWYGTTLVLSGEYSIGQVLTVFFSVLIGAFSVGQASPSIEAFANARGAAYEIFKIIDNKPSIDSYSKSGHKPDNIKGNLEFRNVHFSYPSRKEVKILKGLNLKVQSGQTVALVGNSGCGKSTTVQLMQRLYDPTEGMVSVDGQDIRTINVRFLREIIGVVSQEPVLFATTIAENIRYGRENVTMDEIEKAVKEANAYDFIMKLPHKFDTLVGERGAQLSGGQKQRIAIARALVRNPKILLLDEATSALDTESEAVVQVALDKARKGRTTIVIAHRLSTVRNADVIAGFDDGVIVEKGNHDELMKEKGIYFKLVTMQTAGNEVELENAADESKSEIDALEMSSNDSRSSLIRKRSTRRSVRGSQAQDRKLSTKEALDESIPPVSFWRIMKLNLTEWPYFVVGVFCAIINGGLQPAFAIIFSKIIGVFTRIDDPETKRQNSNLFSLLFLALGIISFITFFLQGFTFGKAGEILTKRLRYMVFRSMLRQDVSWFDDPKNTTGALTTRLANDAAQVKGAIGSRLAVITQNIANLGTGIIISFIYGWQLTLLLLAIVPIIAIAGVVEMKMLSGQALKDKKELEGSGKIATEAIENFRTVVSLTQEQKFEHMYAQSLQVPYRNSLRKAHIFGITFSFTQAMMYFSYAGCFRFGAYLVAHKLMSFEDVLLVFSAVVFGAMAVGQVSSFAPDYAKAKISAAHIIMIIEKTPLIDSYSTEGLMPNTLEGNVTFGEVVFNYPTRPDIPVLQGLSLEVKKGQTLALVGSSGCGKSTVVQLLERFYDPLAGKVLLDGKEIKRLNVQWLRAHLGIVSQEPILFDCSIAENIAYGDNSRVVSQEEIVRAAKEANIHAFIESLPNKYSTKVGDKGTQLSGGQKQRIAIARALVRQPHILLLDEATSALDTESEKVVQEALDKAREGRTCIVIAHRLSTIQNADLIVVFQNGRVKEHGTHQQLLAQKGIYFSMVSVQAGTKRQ

[3] = target: ADP-ribosylation factor GTPase-activating protein 1 (Rattus norvegicus, UniProt Q62848); assay: Fluorescence polarization-based biochemical high throughput dose response screening assay to identify inhibitors of ADP-ribosylation factor GTPase activating protein 1 (ARFGAP1).; type: functional
Sequence of ADP-ribosylation factor GTPase-activating protein 1 (Q62848 whole entry): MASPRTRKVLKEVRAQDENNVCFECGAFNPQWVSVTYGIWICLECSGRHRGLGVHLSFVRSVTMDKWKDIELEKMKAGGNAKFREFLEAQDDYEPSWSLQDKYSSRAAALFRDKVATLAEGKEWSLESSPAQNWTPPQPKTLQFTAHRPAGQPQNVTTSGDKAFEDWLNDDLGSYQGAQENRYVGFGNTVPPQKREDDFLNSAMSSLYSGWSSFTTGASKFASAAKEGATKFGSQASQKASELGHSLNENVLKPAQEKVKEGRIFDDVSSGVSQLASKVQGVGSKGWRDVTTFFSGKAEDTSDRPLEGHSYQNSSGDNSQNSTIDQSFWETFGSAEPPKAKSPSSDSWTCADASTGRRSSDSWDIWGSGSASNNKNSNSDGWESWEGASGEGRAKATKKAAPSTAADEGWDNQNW

[4] = target: Botulinum neurotoxin type F (Clostridium botulinum, UniProt P30996); assay: High-throughput multiplex microsphere dose response for inhibitors of toxin protease, specifically Botulinum neurotoxin light chain F protease, compounds from Cherry Pick 02.; type: functional; conditions: read-out: EC50_MICROM
Sequence of Botulinum neurotoxin type F (P30996 1-436 limits assumed): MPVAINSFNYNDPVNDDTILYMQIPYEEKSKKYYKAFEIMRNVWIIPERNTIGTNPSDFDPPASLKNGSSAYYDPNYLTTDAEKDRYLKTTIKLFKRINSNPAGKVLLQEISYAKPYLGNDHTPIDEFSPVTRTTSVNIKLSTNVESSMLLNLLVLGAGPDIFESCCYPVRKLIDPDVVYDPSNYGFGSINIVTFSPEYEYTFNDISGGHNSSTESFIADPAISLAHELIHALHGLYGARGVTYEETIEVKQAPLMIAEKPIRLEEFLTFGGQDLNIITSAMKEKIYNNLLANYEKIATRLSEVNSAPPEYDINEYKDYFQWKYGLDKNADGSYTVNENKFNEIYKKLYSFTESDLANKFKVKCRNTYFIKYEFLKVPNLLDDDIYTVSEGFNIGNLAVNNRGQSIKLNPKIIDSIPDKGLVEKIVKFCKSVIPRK

[5] = L6 myocyte viability loss – cell-based, plate reader, cherry-pick, cytotoxicity control, dose response (AID 651896); type: functional
[6] = Inhibition of T. cruzi Tulahuen strain amastigotes in L-6 muscle cells Measured in Cell-Based and Microorganism Combination System Using Plate Reader - 2138-03_Inhibitor_Dose_CherryPick_Activity.; type: functional; conditions: Rattus norvegicus, L6
[7] = antileishmanial activity on axenic amastigotes – plate reader, cherry pick, dose response (AID 651891); type: functional, cell-based; conditions: Leishmania donovani
[8] = Inhibition of Plasmodium falciparum NF54 Measured in Cell-Based System Using Plate Reader - 2138-11_Inhibitor_Dose_CherryPick_Activity.; type: functional
[9] = intracellular Trypanosoma cruzi inhibitors in host cells – cell-based, plate reader, cherry-pick samples, set 3, dose response (AID 651818); type: functional;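 also: compounds incubated with infected cells for about four days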
[10] = anti-trypanosomal activity in BESM host cells – imaging, CA-I/72 strain, bovine embryo skeletal muscle, dry powder, dose response (AID 651885); type: functional, cell-based
[11] = African trypanosome bloodstream form growth inhibition – STIB900 strain, plate reader, cherry pick, dose response (AID 651893); type: functional, cell-based, Trypanosoma brucei rhodesiense; conditions: Trypanosoma brucei
[12] = target: DNA repair protein RAD52 homolog (Homo sapiens, UniProt P43351); type: functional, biochemical
Sequence of DNA repair protein RAD52 homolog (P43351 whole entry): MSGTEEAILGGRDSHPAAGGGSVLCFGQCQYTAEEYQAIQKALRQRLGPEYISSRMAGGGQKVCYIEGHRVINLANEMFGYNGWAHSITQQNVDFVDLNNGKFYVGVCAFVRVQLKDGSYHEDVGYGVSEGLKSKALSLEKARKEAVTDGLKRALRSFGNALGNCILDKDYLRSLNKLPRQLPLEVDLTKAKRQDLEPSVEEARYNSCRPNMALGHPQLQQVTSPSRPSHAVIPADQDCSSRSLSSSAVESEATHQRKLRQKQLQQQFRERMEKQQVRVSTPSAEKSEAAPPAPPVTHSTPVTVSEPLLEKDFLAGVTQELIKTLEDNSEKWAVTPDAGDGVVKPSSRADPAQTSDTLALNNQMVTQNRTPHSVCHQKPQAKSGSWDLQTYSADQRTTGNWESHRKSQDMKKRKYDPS

[13] = inhibitors of EBV LMP1 NF-kappaB signaling – cell-based, luciferase reporter, luminescence, dry powder, set 2, dose response (AID 624376); type: functional
[14] = TNFa-induced NF-kB reporter signal decrease – HEK293 LMP1 reporter cells, dry powder, set 2, selectivity assay for EBV LMP1 NF-kB inhibitor project, dose response (AID 624369); type: functional
[15] = HEK293T viability loss – cell-based, ATP luminescence, dry powder, Set6, cytotoxicity control, dose response (AID 743142); type: functional; conditions: HEK293

Sequence of Broad substrate specificity ATP-binding cassette transporter ABCG2 (Q9UNQ0 whole entry): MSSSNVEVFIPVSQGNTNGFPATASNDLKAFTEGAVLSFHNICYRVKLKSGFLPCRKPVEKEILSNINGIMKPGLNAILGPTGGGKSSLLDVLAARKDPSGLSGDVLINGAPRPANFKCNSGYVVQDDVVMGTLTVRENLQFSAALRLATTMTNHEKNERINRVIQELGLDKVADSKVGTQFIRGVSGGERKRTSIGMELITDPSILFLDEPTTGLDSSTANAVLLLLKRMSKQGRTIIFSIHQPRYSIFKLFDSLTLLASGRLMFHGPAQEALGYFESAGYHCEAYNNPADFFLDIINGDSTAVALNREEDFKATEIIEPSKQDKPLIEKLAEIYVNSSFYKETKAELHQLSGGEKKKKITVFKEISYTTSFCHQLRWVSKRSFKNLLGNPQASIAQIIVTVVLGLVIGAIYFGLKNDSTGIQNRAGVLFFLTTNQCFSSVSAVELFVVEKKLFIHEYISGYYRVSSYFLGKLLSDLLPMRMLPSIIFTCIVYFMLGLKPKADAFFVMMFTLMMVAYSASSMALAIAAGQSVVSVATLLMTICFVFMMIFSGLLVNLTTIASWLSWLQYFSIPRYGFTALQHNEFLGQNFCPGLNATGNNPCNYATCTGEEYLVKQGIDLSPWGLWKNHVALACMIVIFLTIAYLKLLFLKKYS

Structure (SMILES): CCOC(=O)c1cccc(NC(=O)c2cnc3ccccc3n2)c1
- EC50 [1]: 11.8 µM (active)
- EC50 [2]: 30.7 µM (inactive)

Structure (SMILES): COc1ccc(-n2c(=O)c3c4c(sc3n3cnnc23)CC(C)CC4)cc1 (stereo not given)
- IC50 [3]: 23.1 µM (inactive)

Structure (SMILES): COc1ccc(C(CNC(=O)c2ccc(OC)c(S(=O)(=O)N3CCCC3)c2)N2CCCC2)cc1 (stereo not given)
- EC50 [4]: > 20 µM (inactive)

Structure (SMILES): C[C@H]1CN([C@@H](C)CO)C(=O)c2cccc(NC(=O)c3ccncc3)c2O[C@@H]1CN(C)Cc1ccc(-c2ccccc2)cc1
- IC50 [5]: 17.5 µM (active)
- IC50 [6]: 1.14 µM (active)
- IC50 [7]: 6.47 µM (inactive)
- IC50 [8]: 1.14 µM (active)
- AC50 [9]: 0.075 µM (active)
- IC50 [10]: 10 µM (inconclusive)
- IC50 [11]: 6.41 µM (inactive)

Structure (SMILES): Cc1cc(N2CCNC[C@@H]2C)ccc1N1CC[C@@H](O)C1
- AC50 [12]: 4.37 µM (active)

Structure (SMILES): C/C=C/c1cccc(-c2nc(C(=O)Nc3nccs3)cc3c2[C@@H](CCO)N(C(=O)NC(C)C)C3)c1
- AbsAC35 [13]: 118.9 µM
- AbsAC35 [14]: 58.58 µM

Structure (SMILES): O=C(Cc1ccc(Cl)cc1)NCCC(=O)N[C@@H]1CCCc2ccccc21
- AC50 [15]: 5.41 µM (active)
